Source: patent US20240150293A1, “SPIROCYCLOHEXANE DERIVATIVES, PHARMACEUTICAL COMPOSITIONS CONTAINING THEM AND THEIR USES AS ANTI-APOPTOTIC INHIBITORS” (LES LABORATOIRES SERVIER, priority 2021, published 2024)

What was measured:
[1] = molecular target: Cy5-labelled Mcl1 (amino acids 171-321) C286S protein (UniProtKB Q07820) (Homo sapiens (Human), UniProt Q07820, C286S); test: Inhibition of Mcl-1 by the fluorescence quenching assay (Example A, Method B); type: binding
Procedure, shortened: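 Cy5-labelled Mcl1 171-321 C286S (1 nM) quenched by TQ5WS-labelled PUMA peptide (10, 20 or 400 nM); displacement raises fluorescence (Ex 620/Em 680 nm). Buffer 10 mM HEPES, 150 mM NaCl, 0.05% Tween 20, pH 7.4, 5% DMSO; 2 h at room temperature, 11-point curves, IC50 converted to Ki (cKi/eKi).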

[2] = test system: H929 multiple myeloma tumor line; test: In vitro cytotoxicity, MTT assay (Example B, Method A); type: cell-based; settings: Homo sapiens, NCI-H929, 48 h, H929 cells, 48 hours exposure, read-out: C50
Procedure: The cytotoxicity studies were carried out on the H929 multiple myeloma tumor line.
The cells are distributed onto microplates and exposed to the test compounds for 48 hours. The cell viability is then quantified by a colorimetric assay, the Microculture Tetrazolium Assay (Carmichael et al, Cancer Res. 1987, 47, 939-942).
The results are expressed in C50 which means concentration corresponding to […] of effect/inhibition.

Sequence of Cy5-labelled Mcl1 (amino acids 171-321) C286S protein (Q07820 171-321 C286S): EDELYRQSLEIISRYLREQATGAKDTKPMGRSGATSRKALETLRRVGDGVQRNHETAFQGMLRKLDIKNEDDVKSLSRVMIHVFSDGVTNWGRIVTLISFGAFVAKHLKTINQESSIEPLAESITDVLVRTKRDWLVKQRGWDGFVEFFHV

SMILES | Ki [1] [nM] | IC50 [2] [nM]
C[C@@H](COc1ccnc2c1[C@H](C)CC[C@H]2F)CC1=Cc2cc(F)ccc2[C@]12CC[C@@](Nc1cccc(Cl)c1)(C(=O)O)CC2 [Example 772, (1r,4R)-4-(3-chloroanilino)-5′-fluoro-2′-[(2R)-3-{[(5R,8R)-8-fluoro-5-methyl-5,6,7,8-tetrahydroquinolin-4-yl]oxy}-2-methylpropyl]spiro[cyclohexane-1,1′-indene]-4-carboxylic acid] | 3.63 | 126
C[C@@H](COc1ccnc2c1[C@H](C)CC[C@H]2C)C[C@H]1Cc2cc(F)ccc2[C@]12CC[C@@](Nc1cccc(Cl)c1)(C(=O)O)CC2 [Example 773, (1r,2′S,4S)-4-(3-chloroanilino)-2′-[(2R)-3-{[(5R,8R)-5,8-dimethyl-5,6,7,8-tetrahydroquinolin-4-yl]oxy}-2-methylpropyl]-5′-fluoro-2′,3′-dihydrospiro[cyclohexane-1,1′-indene]-4-carboxylic acid] | 0.279 | 32.2
C[C@@H](COc1ccnc2c1[C@H](C)CCC2)CC1=Cc2cc(F)c(F)cc2[C@]12CC[C@@](Nc1cccc(Cl)c1)(C(=O)O)CC2 [Example 774, (1r,4R)-4-(3-chloroanilino)-5′,6′-difluoro-2′-[(2R)-2-methyl-3-{[(5R)-5-methyl-5,6,7,8-tetrahydroquinolin-4-yl]oxy}propyl]spiro[cyclohexane-1,1′-indene]-4-carboxylic acid] | 1.42 | 118
C[C@@H](COc1ccnc2c1[C@H](C)CCC2)C[C@@H]1Cc2cc(F)c(F)cc2[C@]12CC[C@@](Nc1cccc(Cl)c1)(C(=O)O)CC2 [Example 776, (1r,2′R,4R)-4-(3-chloroanilino)-5′,6′-difluoro-2′-[(2R)-2-methyl-3-{[(5R)-5-methyl-5,6,7,8-tetrahydroquinolin-4-yl]oxy}propyl]-2′,3′-dihydrospiro[cyclohexane-1,1′-indene]-4-carboxylic acid] | 2.28 | 227
C[C@@H](COc1ccnc2c1[C@H](C)CCC2)C[C@@H]1Cc2cc(Cl)ccc2[C@]12CC[C@@](Nc1cccc(Cl)c1)(C(=O)O)CC2 [Example 779, (1r,2′R,4R)-5′-chloro-4-(3-chloroanilino)-2′-[(2R)-2-methyl-3-{[(5R)-5-methyl-5,6,7,8-tetrahydroquinolin-4-yl]oxy}propyl]-2′,3′-dihydrospiro[cyclohexane-1,1′-indene]-4-carboxylic acid] | 0.423 | 143
C[C@@H](COc1ccnc2c1[C@@H](C)CCC2)C[C@H]1Cc2ccc(O)cc2[C@]12CC[C@@](Nc1cccc(Cl)c1)(C(=O)O)CC2 [Example 780, (1r,2′S,4S)-4-(3-chloroanilino)-6′-hydroxy-2′-[(2R)-2-methyl-3-{[(5S)-5-methyl-5,6,7,8-tetrahydroquinolin-4-yl]oxy}propyl]-2′,3′-dihydrospiro[cyclohexane-1,1′-indene]-4-carboxylic acid] | 8.89 | 641
C[C@@H](COc1ccnc2c1[C@H](C)CCC2)C[C@H]1Cc2ccc(Oc3ccccc3)cc2[C@]12CC[C@@](Nc1cccc(Cl)c1)(C(=O)O)CC2 [Example 793, (1r,2′S,4S)-4-(3-chloroanilino)-2′-[(2R)-2-methyl-3-{[(5S)-5-methyl-5,6,7,8-tetrahydroquinolin-4-yl]oxy}propyl]-6′-phenoxy-2′,3′-dihydrospiro[cyclohexane-1,1′-indene]-4-carboxylic acid] | 17.9 | 857
C[C@@H](COc1ccnc2c1[C@@H](C)CCC2)C[C@H]1Cc2cc(Cl)c(O)cc2[C@]12CC[C@@](Nc1cccc(Cl)c1)(C(=O)O)CC2 [Example 814, (1r,2′S,4S)-5′-chloro-4-(3-chloroanilino)-6′-hydroxy-2′-[(2R)-2-methyl-3-{[(5S)-5-methyl-5,6,7,8-tetrahydroquinolin-4-yl]oxy}propyl]-2′,3′-dihydrospiro[cyclohexane-1,1′-indene]-4-carboxylic acid] | 3.42 | 135
C[C@@H](COc1ccnc2c1[C@H](C)CCC2)C[C@@H]1Cc2cc3c(cc2[C@]12CC[C@@](Nc1cccc(Cl)c1)(C(=O)O)CC2)OCO3 [Example 841, (1r,4R,6′R)-4-(3-chloroanilino)-6′-[(2R)-2-methyl-3-{[(5R)-5-methyl-5,6,7,8-tetrahydroquinolin-4-yl]oxy}propyl]-6′,7′-dihydro-2′H-spiro[cyclohexane-1,5′-indeno[5,6-d][1,3]dioxole]-4-carboxylic acid] | 0.172 | 76.6
C[C@@H](COc1ccnc2c1[C@@H](C)CCC2)C[C@H]1Cc2cc3c(cc2[C@]12CC[C@@](Nc1cccc(Cl)c1)(C(=O)O)CC2)OCO3 [Example 842, (1r,4S,6′S)-4-(3-chloroanilino)-6′-[(2R)-2-methyl-3-{[(5S)-5-methyl-5,6,7,8-tetrahydroquinolin-4-yl]oxy}propyl]-6′,7′-dihydro-2′H-spiro[cyclohexane-1,5′-indeno[5,6-d][1,3]dioxole]-4-carboxylic acid] | 1.55 | 81
CC(O)c1ccc2c(c1)[C@]1(CC[C@@](Nc3cccc(Cl)c3)(C(=O)O)CC1)C(C[C@@H](C)COc1ccnc3c1[C@H](C)CCC3)=C2 (stereo partly drawn) [Example 857, (1r,4R)-4-(3-chloroanilino)-6′-(1-hydroxyethyl)-2′-[(2R)-2-methyl-3-{[(5R)-5-methyl-5,6,7,8-tetrahydroquinolin-4-yl]oxy}propyl]spiro[cyclohexane-1,1′-indene]-4-carboxylic acid] | 0.169 | 143
CC(=O)c1ccc2c(c1)[C@]1(CC[C@@](Nc3cccc(Cl)c3)(C(=O)O)CC1)[C@@H](C[C@@H](C)COc1ccnc3c1[C@H](C)CCC3)C2 [Example 858, (1r,2′S,4S)-6′-acetyl-4-(3-chloroanilino)-2′-[(2R)-2-methyl-3-{[(5R)-5-methyl-5,6,7,8-tetrahydroquinolin-4-yl]oxy}propyl]-2′,3′-dihydrospiro[cyclohexane-1,1′-indene]-4-carboxylic acid] | 0.0699 | 50.6
C[C@@H](COc1ccnc2c1[C@H](C)CCC2)C[C@H]1Cc2ccc(C=O)cc2[C@]12CC[C@@](Nc1cccc(Cl)c1)(C(=O)O)CC2 [Example 867, (1r,2′S,4S)-4-(3-chloroanilino)-6′-formyl-2′-[(2R)-2-methyl-3-{[(5R)-5-methyl-5,6,7,8-tetrahydroquinolin-4-yl]oxy}propyl]-2′,3′-dihydrospiro[cyclohexane-1,1′-indene]-4-carboxylic acid] | 0.0988 | 73

Further molecules by falling Ki [1], results first:

Ki [1] [nM] | SMILES | IC50 [2] [nM]
10.3 | COc1ccc2c(c1)[C@]1(CC[C@@](Nc3cccc(Cl)c3)(C(=O)O)CC1)[C@@H](C[C@@H](C)COc1ccnc3c1[C@@H](C)CCC3)C2 [Example 783, (1r,2′S,4S)-4-(3-chloroanilino)-6′-methoxy-2′-[(2R)-2-methyl-3-{[(5S)-5-methyl-5,6,7,8-tetrahydroquinolin-4-yl]oxy}propyl]-2′,3′-dihydrospiro[cyclohexane-1,1′-indene]-4-carboxylic acid] | 430
0.864 | CC(=O)c1ccc2c(c1)[C@]1(CC[C@@](Nc3cccc(Cl)c3)(C(=O)O)CC1)C(C[C@@H](C)COc1ccnc3c1[C@H](C)CCC3)=C2 [Example 856, (1r,4R)-6′-acetyl-4-(3-chloroanilino)-2′-[(2R)-2-methyl-3-{[(5R)-5-methyl-5,6,7,8-tetrahydroquinolin-4-yl]oxy}propyl]spiro[cyclohexane-1,1′-indene]-4-carboxylic acid] | 74.8
0.725 | C[C@@H](COc1ccnc2c1[C@H](C)CCC2)CC1=Cc2cc(Cl)ccc2[C@]12CC[C@@](Nc1cccc(Cl)c1)(C(=O)O)CC2 [Example 777, (1r,4R)-5′-chloro-4-(3-chloroanilino)-2′-[(2R)-2-methyl-3-{[(5R)-5-methyl-5,6,7,8-tetrahydroquinolin-4-yl]oxy}propyl]spiro[cyclohexane-1,1′-indene]-4-carboxylic acid] | 175
0.703 | Cc1cc2c(cc1C)[C@]1(CC[C@@](Nc3cccc(Cl)c3)(C(=O)O)CC1)[C@H](C[C@@H](C)COc1ccnc3c1[C@H](C)CCC3)C2 [Example 855, (1r,2′R,4R)-4-(3-chloroanilino)-5′,6′-dimethyl-2′-[(2R)-2-methyl-3-{[(5R)-5-methyl-5,6,7,8-tetrahydroquinolin-4-yl]oxy}propyl]-2′,3′-dihydrospiro[cyclohexane-1,1′-indene]-4-carboxylic acid] | 50.8
0.204 | CC(O)c1ccc2c(c1)[C@]1(CC[C@@](Nc3cccc(Cl)c3)(C(=O)O)CC1)[C@@H](C[C@@H](C)COc1ccnc3c1[C@H](C)CC[C@H]3C)C2 (stereo partly drawn) [Example 865, (1r,2′S,4S)-4-(3-chloroanilino)-2′-[(2R)-3-{[(5R,8R)-5,8-dimethyl-5,6,7,8-tetrahydroquinolin-4-yl]oxy}-2-methylpropyl]-6′-(1-hydroxyethyl)-2′,3′-dihydrospiro[cyclohexane-1,1′-indene]-4-carboxylic acid] | 45.9
0.176 | C[C@@H](COc1ccnc2c1[C@H](C)CC[C@H]2O)C[C@H]1Cc2cc(F)ccc2[C@]12CC[C@@](Nc1cccc(Cl)c1)(C(=O)O)CC2 [Example 771, (1r,2′S,4S)-4-(3-chloroanilino)-5′-fluoro-2′-[(2R)-3-{[(5R,8R)-8-hydroxy-5-methyl-5,6,7,8-tetrahydroquinolin-4-yl]oxy}-2-methylpropyl]-2′,3′-dihydrospiro[cyclohexane-1,1′-indene]-4-carboxylic acid] | 18.3
